What was measured:
blackgrass = assay: Test B postemergence herbicide test; type: in vivo, Alopecurus myosuroides; details: postemergence, visual rating, scale 0 (no effect) to 100 (complete control)
How it was run: (§1)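 Plants grow to 1- to 4-leaf stage (2–18 cm) for postemergence spraying, or to 2-leaf stage for the paddy test. Formulated compound is applied. Greenhouse holding lasts 13–15 days. Response is scored visually relative to controls, 0 no effect to 100 complete control; a dash means no result.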

morningglory = assay: Test B pre-/postemergence herbicide test; type: in vivo, Ipomoea coccinea; details: for Morningglory plant response rating: postemergence, visual rating, scale 0 (no effect) to 100 (complete control)
How it was run: (§2)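 Species tested were Echinochloa crus-galli, Ipomoea coccinea, Xanthium strumarium and Oryza sativa, treated both before emergence and at the 1- to 4-leaf stage; rice and barnyardgrass were also tested under flooding at 2 leaves. Greenhouse incubation lasted 13–15 days before visual 0–100 scoring.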

rice [1] = assay: Test C flooded paddy test; type: in vivo, Oryza sativa
How it was run: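 Plants were grown to the 1- to 4-leaf stage (2–18 cm) and then treated postemergence, or grown to the 2-leaf stage for the flooded paddy test. They were held in a greenhouse for 12 to 14 days and then scored by eye against controls, where 0 is no effect and 100 is complete control.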

ducksalad [2] = assay: Test C flooded paddy test; type: in vivo, Heteranthera limosa
Surinam grass = assay: Test B pre-/postemergence herbicide test; type: in vivo, Urochloa decumbens; details: for Surinam Grass plant response rating: postemergence, visual rating, scale 0 (no effect) to 100 (complete control)
How it was run: (§3)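 Herbicidal effect was judged by eye on a 0–100 scale after plants stood 13 to 15 days in the greenhouse following pre- or postemergence treatment with surfactant-containing formulations.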

wheat = assay: Test B postemergence herbicide test; type: in vivo, Triticum aestivum; parameters: key to Wheat plant response rating: 0 = no effect, 100 = complete control; details: postemergence, visual rating, scale 0 (no effect) to 100 (complete control)
How it was run: (§4)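 After treating 2-leaf paddy plants or 2–18 cm postemergence plants (1 to 4 leaves) with formulated chemical, researchers kept them in a greenhouse for 13–15 days. Effects were judged visually versus controls: 0 indicates none, 100 total control.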

rice [3] = assay: Test B flooded paddy test; type: in vivo, Oryza sativa; details: 1000 g ai/ha, visual rating, scale 0 to 100 (0 no effect, 100 complete control), 13 to 15 days
How it was run: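 Treated at 2-leaf (paddy) or 1–4-leaf, 2–18 cm (postemergence); greenhouse 13–15 d; visual score vs control, 0 none to 100 complete control; dash = not tested.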

cocklebur = assay: Test B pre-/postemergence herbicide test; type: in vivo, Xanthium strumarium; details: for Cocklebur plant response rating: postemergence, visual rating, scale 0 (no effect) to 100 (complete control)
How it was run: as §2

barnyardgrass [4] = assay: Test B flooded paddy test; type: in vivo, Echinochloa crus-galli; details: 1000 g ai/ha, visual rating, scale 0 to 100 (0 no effect, 100 complete control), 13 to 15 days
How it was run: as §1

velvetleaf = assay: Test B pre-/postemergence herbicide test; type: in vivo, Abutilon theophrasti; details: for Velvetleaf plant response rating: postemergence, visual rating, scale 0 (no effect) to 100 (complete control)
How it was run: as §3

large crabgrass = assay: Test B pre-/postemergence herbicide test; type: in vivo, Digitaria sanguinalis; details: for Crabgrass, Large plant response rating: postemergence, visual rating, scale 0 (no effect) to 100 (complete control)
How it was run: as §3

wild oat = assay: Test B postemergence herbicide test; type: in vivo, Avena fatua; details: postemergence, visual rating, scale 0 (no effect) to 100 (complete control)
How it was run: as §4

[5] = tested on: smallflower umbrella sedge; assay: Test C flooded paddy test; type: in vivo, Cyperus difformis
pigweed = assay: Test B pre-/postemergence herbicide test; type: in vivo, Amaranthus retroflexus; details: for Pigweed plant response rating: postemergence, visual rating, scale 0 (no effect) to 100 (complete control)
How it was run: as §3

corn = assay: Test B pre-/postemergence herbicide test; type: in vivo, Zea mays; details: for Corn plant response rating: postemergence, visual rating, scale 0 (no effect) to 100 (complete control)
How it was run: as §3

ducksalad [6] = assay: Test B flooded paddy test; type: in vivo, Heteranthera limosa; details: 1000 g ai/ha, visual rating, scale 0 to 100 (0 no effect, 100 complete control), 13 to 15 days
How it was run: as §1

giant foxtail = assay: Test B pre-/postemergence herbicide test; type: in vivo, Setaria faberi; details: for Foxtail, Giant plant response rating: postemergence, visual rating, scale 0 (no effect) to 100 (complete control)
How it was run: as §3

rice [7] = assay: Test B pre-/postemergence herbicide test; type: in vivo, Oryza sativa; details: preemergence
How it was run: as §3

lambsquarters = assay: Test B pre-/postemergence herbicide test; type: in vivo, Chenopodium album; details: for Lambsquarters plant response rating: postemergence, visual rating, scale 0 (no effect) to 100 (complete control)
How it was run: as §3

barnyardgrass [8] = assay: Test C flooded paddy test; type: in vivo, Echinochloa crus-galli
How it was run: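 Weeds and wheat were sprayed after emergence, at a height of 2 to 18 cm (1–4 leaves), and paddy barnyardgrass was flooded and treated at two leaves. Assessment took place 12–14 days later in the greenhouse on a 0-to-100 visual control scale. A dash means no result was obtained.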

[9] = tested on: small flower umbrella sedge; assay: Test B flooded paddy test; type: in vivo, Cyperus difformis; details: 1000 g ai/ha, visual rating, scale 0 to 100 (0 no effect, 100 complete control), 13 to 15 days
How it was run: as §1

barnyardgrass [10] = assay: Test B pre-/postemergence herbicide test; type: in vivo, Echinochloa crus-galli; details: for Barnyardgrass plant response rating: postemergence, visual rating, scale 0 (no effect) to 100 (complete control)
How it was run: as §2

[11] = 125 g ai/ha, 0 = no effect, 100 = complete control, preemergence
[12] = 500 g ai/ha, visual rating 0-100, 0 no effect, 100 complete control, preemergence
[13] = 62 g ai/ha, scale 0 to 100 (0 no effect, 100 complete control)
[14] = 125 g ai/ha, scale 0 to 100 (0 no effect, 100 complete control)
[15] = 250 g ai/ha, scale of 0 to 100, 0 is no effect, 100 is complete control
[16] = 500 g ai/ha, visual rating after 12 to 14 days, scale 0 to 100 (0 no effect, 100 complete control)

CCNC(=O)c1cccc(NC(=O)c2cn(C(C)(C)C)nc2CC)c1 [Compound 181]
Blackgrass plant response rating (blackgrass; 125 g ai/ha): 0
Blackgrass plant response rating (blackgrass; 500 g ai/ha): 10
Morningglory plant response rating (0 to 100 scale) (morningglory; [11]): 0
Plant response rating, Morningglory (morningglory; [12]): 20
Morningglory plant response rating (morningglory; 125 g ai/ha): 20
Morningglory plant response rating (morningglory; 500 g ai/ha): 20
Rice plant response rating (rice [1]; [13]): 0
Rice plant response rating (rice [1]; [14]): 0
Rice plant response rating (rice [1]; [15]): 0
Plant response rating, Rice (rice [1]; [16]): 0
Ducksalad plant response rating (ducksalad [2]; [13]): 0
Ducksalad plant response rating (ducksalad [2]; [14]): 0
Ducksalad plant response rating (ducksalad [2]; [15]): 0
Plant response rating, Ducksalad (ducksalad [2]; [16]): 80
Surinam Grass plant response rating (0 to 100 scale) (Surinam grass; [11]): 30
Plant response rating, Surinam Grass (Surinam grass; [12]): 70
Surinam Grass plant response rating (Surinam grass; 125 g ai/ha): 20
Surinam Grass plant response rating (Surinam grass; 500 g ai/ha): 20
Wheat plant response rating (wheat; 125 g ai/ha): 0
Wheat plant response rating (wheat; 500 g ai/ha): 0
Rice plant response rating (rice [3]): 80
Cocklebur plant response rating (0 to 100 scale) (cocklebur; [11]): 10
Plant response rating, Cocklebur (cocklebur; [12]): 20
Cocklebur plant response rating (cocklebur; 125 g ai/ha): 20
Cocklebur plant response rating (cocklebur; 500 g ai/ha): 70
Barnyardgrass plant response rating (barnyardgrass [4]): 80
Velvetleaf plant response rating (0 to 100 scale) (velvetleaf; [11]): 0
Plant response rating, Velvetleaf (velvetleaf; [12]): 10
Velvetleaf plant response rating (velvetleaf; 125 g ai/ha): 10
Velvetleaf plant response rating (velvetleaf; 500 g ai/ha): 20
Crabgrass, Large plant response rating (0 to 100 scale) (large crabgrass; [11]): 50
Plant response rating, Crabgrass, Large (large crabgrass; [12]): 100
Crabgrass, Large plant response rating (large crabgrass; 125 g ai/ha): 10
Crabgrass, Large plant response rating (large crabgrass; 500 g ai/ha): 20
Oat, Wild plant response rating (wild oat; 125 g ai/ha): 20
Oat, Wild plant response rating (wild oat; 500 g ai/ha): 30
Sedge, Umbrella plant response rating [5, 13]: 10
Sedge, Umbrella plant response rating [5, 14]: 20
Sedge, Umbrella plant response rating [5, 15]: 80
Plant response rating, Sedge, Umbrella [5, 16]: 85
Pigweed plant response rating (0 to 100 scale) (pigweed; [11]): 30
Plant response rating, Pigweed (pigweed; [12]): 100
Pigweed plant response rating (pigweed; 125 g ai/ha): 40
Pigweed plant response rating (pigweed; 500 g ai/ha): 90
Corn plant response rating (0 to 100 scale) (corn; [11]): 0
Plant response rating, Corn (corn; [12]): 40
Corn plant response rating (corn; 125 g ai/ha): 20
Corn plant response rating (corn; 500 g ai/ha): 20
Ducksalad plant response rating (ducksalad [6]): 90
Foxtail, Giant plant response rating (0 to 100 scale) (giant foxtail; [11]): 20
Plant response rating, Foxtail, Giant (giant foxtail; [12]): 100
Foxtail, Giant plant response rating (giant foxtail; 125 g ai/ha): 20
Foxtail, Giant plant response rating (giant foxtail; 500 g ai/ha): 20
Rice plant response rating (0 to 100 scale) (rice [7]; 125 g ai/ha, 0 = no effect, 100 = complete control): 40
Plant response rating, Rice (rice [7]; 500 g ai/ha, visual rating 0-100, 0 no effect, 100 complete control): 70
Lambsquarters plant response rating (0 to 100 scale) (lambsquarters; [11]): 50
Plant response rating, Lambsquarters (lambsquarters; [12]): 100
Lambsquarters plant response rating (lambsquarters; 125 g ai/ha): 70
Lambsquarters plant response rating (lambsquarters; 500 g ai/ha): 90
Barnyardgrass plant response rating (barnyardgrass [8]; [13]): 0
Barnyardgrass plant response rating (barnyardgrass [8]; 125 g ai/ha, scale of 0 to 100, 0 is no effect, 100 is complete control): 0
Barnyardgrass plant response rating (barnyardgrass [8]; [15]): 0
Plant response rating, Barnyardgrass (barnyardgrass [8]; [16]): 0
Sedge, Umbrella plant response rating [9]: 80
Barnyardgrass plant response rating (0 to 100 scale) (barnyardgrass [10]; [11]): 30
Plant response rating, Barnyardgrass (barnyardgrass [10]; [12]): 90
Barnyardgrass plant response rating (barnyardgrass [10]; 125 g ai/ha): 0
Barnyardgrass plant response rating (barnyardgrass [10]; 500 g ai/ha): 10
